The text below walks through data of patent EP4748844A1, “AZETIDINE COMPOUND AND MEDICAL USE THEREOF” (SHANGHAI INSTITUTE OF MATERIA MEDICA, CHINESE ACADEMY OF …, priority 2023, dated 2025).

The subject of experiment [1] is DMXAA induced ISG gene expression in mouse RAW-Lucia cells. The experiment in a line: Inhibition of DMXAA-induced ISG gene expression in mouse RAW-Lucia cells (QUANTI-Luc). The class given is cell-based. The settings on record: STING agonist DMXAA 50 µM, incubated for 24 hours. The protocol:
10 µL of compound diluted with PBS/physiological saline was added to each well of a 96 well cell culture plate. The STING agonist was DMXAA, which was added to the counted cell suspension at a final concentration of 50 µM. For the control group without compounds, 10 µL of PBS/physiological saline containing 2% DMSO was added. 3 replicate wells were set in each group. RAW-Lucia cells were counted and adjusted to a cell concentration of 4×10^5/mL, and […] of cells were added to each well for incubation. Therefore, the final volume of each test well was 200 µL, the content of DMSO was 0.1%, and the final concentration of the compound tested was 10/3.3/1.1/0.4/0.13/0.04/0.013/0.004 µM. The final concentration of STING agonist DMXAA was 50 µM. The mixture was incubated for 24 hours. In addition, 200 µL of culture medium was added to the blank group. 3 replicate wells were set in each group.
After 24 hours, 20 µL of culture medium was taken from each well and transferred to a new 96 well plate with photopermeable bottom. 50 µL of the luciferase detection reagent QUANTI-Luc™ was added, and the […] was immediately measured (avoid light).
Result analysis: Inhibition rate (%) = (Con(Lum)−Treated(Lum))/Con(Lum) × 100% [formula]
(§1) The IC50 calculation of inhibitors was implemented using the Graphpad Prism 8 software's calculation method log (inhibitor) vs. response - Variable slope (four parameters), with a constrain interval of 0-100.

The test system of experiment [2] is ISG gene expression induced by MSA-2 in human THP1-Dual cells. Nature of the experiment: Inhibition of MSA-2-induced ISG gene expression in human THP1-Dual cells (QUANTI-Luc). The experiment is classed as cell-based. The conditions noted are these: STING agonist MSA-2 10 µM, incubated for 24 hours. The protocol: 10 µL of compound diluted with PBS/physiological saline was added to each well of a 96 well cell culture plate. The STING agonist was MSA-2, which was added to the counted cell suspension at a final concentration of 10 µM. For the control group without compounds, 10 µL of PBS/physiological saline containing 2% DMSO was added. 3 replicate wells were set in each group. THP1-Dual cells were counted and adjusted to a cell concentration of 4×10^5/mL, and 190 µL of cells containing STING agonist were added to each well for incubation. Therefore, the final volume of each test well was 200 µL, the content of DMSO was 0.1%, and the final concentration of the compound tested was 10/3.3/1.1/0.4/0.13/0.04/0.013/0.004 µM, incubated for 24 hours. In addition, 190 µL of cells without STING agonist and 10 µL of physiological saline containing 2% DMSO were added to the blank group. 3 replicate wells were set in each group.
After 24 hours, 20 µL of culture medium for THP1-Dual cells was taken from each well and transferred to a new 96 well plate with photopermeable bottom. 50 µL of the luciferase detection reagent QUANTI-Luc™ was added, and the […] was immediately measured (avoid light). Result analysis:Inhibition rate (%) = (Con(Lum)−Treated(Lum))/Con(Lum) × 100% [formula]
as §1

By IC50 is commonly meant the concentration that inhibits the measured activity by half. A high value points to weaker potency.

Consider `CC1(C)C(=O)N(Cc2ccc3c(c2)OCO3)c2cc(C(=O)Nc3c[nH]c4ccccc34)ccc21` [Example I-92, 1-(benzo[d][1,3]dihydroxyl-5-ylmethyl)-N-(1H-indol-3-yl)-3,3-dimethyl-2-oxoindol-6-carboxamide], for which the IC50 turned out to be 94 nM in experiment [1] and 28.8 nM in experiment [2].

Regarding `O=C(Nc1c[nH]c2ccccc12)c1cc2c(s1)SCC(=O)N2CC1CC1` [Example I-116, 1-(cyclopropylmethyl)-N-(1H-indol-3-yl)-2-oxo-2,3-dihydro-1H-thieno[2,3-b][1,4]thiazin-6-carboxamide], in experiment [2], the IC50 was found to be 206 nM.

Consider `CC1(C)C(=O)N(Cc2csc(C(F)(F)F)c2)c2cc(C(=O)Nc3c[nH]c4ccccc34)sc21` [Example I-90, N-(1H-indol-3-yl)-6,6-dimethyl-5-oxo-4-((5-(trifluoromethyl)thien-3-yl)methyl)-5,6-dihydro-4H-thieno[3,2-b]pyrrol-2-carboxamide], for which the half-inhibitory concentration (IC50) in experiment [2] is 98 nM.

For the molecule `O=C(Nc1c[nH]c2ccc(F)cc12)c1cc2c(s1)SCC(=O)N2Cc1ccoc1` [Example I-122, N-(5-fluoro-1H-indol-3-yl)-1-(furan-3-ylmethyl)-2-oxo-2,3-dihydro-1H-thieno[2,3-b][1,4]thiazin-6-carboxamide], the half-inhibitory concentration (IC50) came out at 15.9 nM in experiment [1] and 272 nM in experiment [2].

Consider `O=C(Nc1c[nH]c2cc(F)c(F)cc12)c1cc2c(s1)SCC(=O)N2Cc1cc(F)cc(C(F)(F)F)c1` [Example I-125, N-(5,6-difluoro-1H-indol-3-yl)-1-(3-fluoro-5-(trifluoromethyl)benzyl)-2-oxo-2,3-dihydro-1H-thieno[2,3-b][1,4]thiazin-6-carboxamide], for which the IC50 in experiment [1] was found to be 5.26 nM; in experiment [2], 76.6 nM.

`O=C(Nc1c[nH]c2ccc(Cl)cc12)c1cc2c(s1)SCC(=O)N2Cc1cc(F)cc(C(F)(F)F)c1` [Example I-123, N-(5-chloro-1H-indol-3-yl)-1-(3-fluoro-5-(trifluoromethyl)benzyl)-2-oxo-2,3-dihydro-1H-thieno[2,3-b][1,4]thiazin-6-carboxamide]: the half-maximal inhibitory concentration (IC50) in experiment [1] came to 5.71 nM; in experiment [2] it was 69 nM.

For `CC1(C)C(=O)N(Cc2csc(Cl)c2)c2cc(C(=O)Nc3c[nH]c4ccccc34)ccc21` [Example I-84, 1-((5-chlorothien-3-yl)methyl)-N-(1H-indol-3-yl)-3,3-dimethyl-2-oxoindolin-6-carboxamide], the figures for the IC50 in experiment [1] and in experiment [2] were 4.69 nM and 20.5 nM, respectively.

As for `O=C(Nc1c[nH]c2ccccc12)c1cc2c(s1)SCC(=O)N2Cc1ccco1` [Example I-118, 1-(furan-2-ylmethyl)-N-(1H-indol-3-yl)-2-oxo-2,3-dihydro-1H-thieno[2,3-b] [1,4]thiazin-6-carboxamide], the IC50 in experiment [1] came out at 45.2 nM; in experiment [2], 232 nM.

In experiment [1], `O=C(Nc1c[nH]c2ccccc12)c1cc2c(s1)SCC(=O)N2CC1CCOCC1` [Example I-119, N-(1H-indol-3-yl)-2-oxo-1-((tetrahydro-2H-pyran-4-yl)methyl)-2,3-dihydro-1H-thieno[2,3-b][1,4]thiazin-6-carboxamide] registered a half-inhibitory concentration (IC50) of 45.5 nM.

On to `O=C(Nc1c[nH]c2ccccc12)c1cc2c(s1)SCC(=O)N2Cc1cc(F)cc(C(F)(F)F)c1` [Example I-115, 1-(3-fluoro-5-(trifluoromethyl)benzyl)-N-(1H-indol-3-yl)-2-oxo-2,3-dihydro-1H-thieno[2,3-b][1,4]thiazin-6-carboxamide], for which the IC50 in experiment [1] was found to be 7.51 nM; in experiment [2], 12.2 nM.

In experiment [2], `CC1(C)C(=O)N(Cc2cccc3ccoc23)c2cc(C(=O)Nc3c[nH]c4cc(F)c(F)cc34)ccc21` [Example I-127, 1-(benzofuran-7-ylmethyl)-N-(5,6-difluoro-1H-indol-3-yl)-3,3-dimethyl-2-oxoindolin-6-carboxamide] came in with an IC50 of 291 nM.

For the molecule `CC1(C)C(=O)N(Cc2csc3ccccc23)c2cc(C(=O)Nc3c[nH]c4ccccc34)ccc21` [Example I-109, 1-(benzo[b]thien-3-ylmethyl)-N-(1H-indol-3-yl)-3,3-dimethyl-2-indolin-6-carboxamide], the IC50 in experiment [1] is 11.8 nM; in experiment [2], 32.1 nM.

With “1-((4-chlorothien-3-yl)methyl)-N-(1H-indol-3-yl)-3,3-dimethyl-2-oxoindolin-6-carboxamide [Example I-89]”, the concentration for half-maximal inhibition (IC50) in experiment [2] is 119 nM.

On to `O=C(Nc1c[nH]c2ccccc12)c1cc2c(s1)SCC(=O)N2Cc1cccs1` [Example I-114, N-(1H-indol-3-yl)-2-oxo-1-(thien-2-ylmethyl)-2,3-dihydro-1H-thieno[2,3-b][1,4]thiazin-6-carboxamide], for which the half-maximal inhibitory concentration (IC50) in experiment [2] is 164 nM.

Take `O=C(Nc1c[nH]c2ccc(F)cc12)c1cc2c(s1)SCC(=O)N2Cc1cc(F)cc(C(F)(F)F)c1` [Example I-124, N-(5-fluoro-1H-indol-3-yl)-1-(3-fluoro-5-(trifluoromethyl)benzyl)-2-oxo-2,3-dihydro-1H-thieno[2,3-b][1,4]thiazin-6-carboxamide]: the IC50 in experiment [1] is under 3 nM; in experiment [2], 48 nM.

Turning to `CC1(C)C(=O)N(Cc2ccc3occc3c2)c2cc(C(=O)Nc3c[nH]c4ccccc34)ccc21` [Example I-93, 1-(benzofuran-5-ylmethyl)-N-(1H-indol-3-yl)-3,3-dimethyl-2-oxoindolin-6-carboxamide], in experiment [2], the IC50 worked out at 74.8 nM.

`CC1(C)C(=O)N(Cc2cc(F)cc(C(F)(F)F)c2)c2cc(C(=O)Nc3c[nH]c4cc(F)c(F)cc34)ccc21` [Example I-111]: the 50% inhibitory concentration (IC50) amounted to 29.1 nM in experiment [1] and 123 nM in experiment [2].

Regarding `O=C(Nc1c[nH]c2ccccc12)c1cc2c(s1)SCC(=O)N2Cc1ccsc1` [Example I-112, N-(1H-indol-3-yl)-2-oxo-1-(thien-3-ylmethyl)-2,3-dihydro-1H-thieno[2,3-b][1,4]thiazin-6-carboxamide], the IC50 in experiment [1] was determined as 41.9 nM; in experiment [2], 46.5 nM.

For `O=C(Nc1c[nH]c2ccccc12)c1cc2c(s1)SCC(=O)N2Cc1ccoc1` [Example I-117, 1-(furan-3-ylmethyl)-N-(1H-indol-3-yl)-2-oxo-2,3-dihydro-1H-thieno[2,3-b][1,4]thiazin-6-carboxamide], the values for the half-inhibitory concentration (IC50) in experiment [1] and in experiment [2] were 76.7 nM and 85 nM, respectively.

Take `CC1(C)C(=O)N(Cc2coc(Cl)c2)c2cc(C(=O)Nc3c[nH]c4ccccc34)sc21` [Example I-91, 4-((5-chlorofuran-3-yl)methyl)-N-(1H-indol-3-yl)-6,6-dimethyl-5-oxo-5,6-dihydro-4H-thieno[3,2-b]pyrrol-2-carboxamide]: in experiment [2], the 50% inhibitory concentration (IC50) is 117 nM.

`CC1(C)C(=O)N(CC2CN(c3cc(F)cc(C(F)(F)F)c3)C2)c2cc(C(=O)Nc3c[nH]c4ccc(F)cc34)ccc21` [Example I-28]: the 50% inhibitory concentration (IC50) in experiment [1] turned out to be 62 nM.

`CC1(C)C(=O)N(Cc2ccoc2)c2cc(C(=O)Nc3c[nH]c4ccccc34)sc21` [Example I-86, 4-(furan-3-ylmethyl)-N-(1H-indol-3-yl)-6,6-dimethyl-5-oxo-5,6-dihydro-4H-thieno[3,2-b]pyrrol-2-carboxamide] came in with a half-inhibitory concentration (IC50) in experiment [2] of 221 nM.

In the case of `CC1(C)C(=O)N(Cc2ccccc2)c2cc(C(=O)Nc3c[nH]c4ccccc34)sc21` [Example I-87, 4-benzyl-N-(1H-indol-3-yl)-6,6-dimethyl-5-oxo-5,6-dihydro-4H-thieno[3,2-b]pyrrol-2-carboxamide], in experiment [2], the IC50 came out at 149 nM.

`CC1(C)C(=O)N(Cc2cc(F)cc(C(F)(F)F)c2)c2cc(C(=O)Nc3c[nH]c4ccccc34)sc21` [Example I-88, 4-(3-fluoro-5-(trifluoromethyl)benzyl)-N-(1H-indol-3-yl)-6,6-dimethyl-5-oxo-5,6-dihydro-4H-thieno[3,2-b]pyrrol-2-carboxamide]: the half-maximal inhibitory concentration (IC50) in experiment [2] stood at 143 nM.

Consider `CC1(C)C(=O)N(Cc2ccccc2-c2ccccc2)c2cc(C(=O)Nc3c[nH]c4ccccc34)ccc21` [Example I-95, 1-([1,1'-biphenyl]-2-ylmethyl)-N-(1H-indol-3-yl)-3,3-dimethyl-2-oxoindolin-6-carboxamide], for which the IC50 in experiment [2] was determined as 228 nM.

`CC1(C)C(=O)N(Cc2ccc3[nH]ccc3c2)c2cc(C(=O)Nc3c[nH]c4ccccc34)ccc21` [Example I-94, 1-(indol-5-ylmethyl)-N-(1H-indol-3-yl)-3,3-dimethyl-2-oxoindolin-6-carboxamide] had an IC50 in experiment [2] of 106 nM.
